pEC50: −log10 of the molar value.
Experiments:
[1] = target: T1, CFTR in F508del/F508del primary CF hBE cells (Homo sapiens, UniProt P13569, DEL508-508); test: Ussing chamber electrophysiology assay of CFTR potentiation in F508del/F508del CF bronchial epithelial cells (27° C.); assay type: cell-based
T1 construct: Primary cystic fibrosis human bronchial epithelial (CF hBE) cells were expanded and cultured; endogenous in cells; host or cells: primary CF human bronchial epithelial cells, genotype F508del/F508del
T1 sequence (P13569 with tags, fused parts or gaps DEL508-508): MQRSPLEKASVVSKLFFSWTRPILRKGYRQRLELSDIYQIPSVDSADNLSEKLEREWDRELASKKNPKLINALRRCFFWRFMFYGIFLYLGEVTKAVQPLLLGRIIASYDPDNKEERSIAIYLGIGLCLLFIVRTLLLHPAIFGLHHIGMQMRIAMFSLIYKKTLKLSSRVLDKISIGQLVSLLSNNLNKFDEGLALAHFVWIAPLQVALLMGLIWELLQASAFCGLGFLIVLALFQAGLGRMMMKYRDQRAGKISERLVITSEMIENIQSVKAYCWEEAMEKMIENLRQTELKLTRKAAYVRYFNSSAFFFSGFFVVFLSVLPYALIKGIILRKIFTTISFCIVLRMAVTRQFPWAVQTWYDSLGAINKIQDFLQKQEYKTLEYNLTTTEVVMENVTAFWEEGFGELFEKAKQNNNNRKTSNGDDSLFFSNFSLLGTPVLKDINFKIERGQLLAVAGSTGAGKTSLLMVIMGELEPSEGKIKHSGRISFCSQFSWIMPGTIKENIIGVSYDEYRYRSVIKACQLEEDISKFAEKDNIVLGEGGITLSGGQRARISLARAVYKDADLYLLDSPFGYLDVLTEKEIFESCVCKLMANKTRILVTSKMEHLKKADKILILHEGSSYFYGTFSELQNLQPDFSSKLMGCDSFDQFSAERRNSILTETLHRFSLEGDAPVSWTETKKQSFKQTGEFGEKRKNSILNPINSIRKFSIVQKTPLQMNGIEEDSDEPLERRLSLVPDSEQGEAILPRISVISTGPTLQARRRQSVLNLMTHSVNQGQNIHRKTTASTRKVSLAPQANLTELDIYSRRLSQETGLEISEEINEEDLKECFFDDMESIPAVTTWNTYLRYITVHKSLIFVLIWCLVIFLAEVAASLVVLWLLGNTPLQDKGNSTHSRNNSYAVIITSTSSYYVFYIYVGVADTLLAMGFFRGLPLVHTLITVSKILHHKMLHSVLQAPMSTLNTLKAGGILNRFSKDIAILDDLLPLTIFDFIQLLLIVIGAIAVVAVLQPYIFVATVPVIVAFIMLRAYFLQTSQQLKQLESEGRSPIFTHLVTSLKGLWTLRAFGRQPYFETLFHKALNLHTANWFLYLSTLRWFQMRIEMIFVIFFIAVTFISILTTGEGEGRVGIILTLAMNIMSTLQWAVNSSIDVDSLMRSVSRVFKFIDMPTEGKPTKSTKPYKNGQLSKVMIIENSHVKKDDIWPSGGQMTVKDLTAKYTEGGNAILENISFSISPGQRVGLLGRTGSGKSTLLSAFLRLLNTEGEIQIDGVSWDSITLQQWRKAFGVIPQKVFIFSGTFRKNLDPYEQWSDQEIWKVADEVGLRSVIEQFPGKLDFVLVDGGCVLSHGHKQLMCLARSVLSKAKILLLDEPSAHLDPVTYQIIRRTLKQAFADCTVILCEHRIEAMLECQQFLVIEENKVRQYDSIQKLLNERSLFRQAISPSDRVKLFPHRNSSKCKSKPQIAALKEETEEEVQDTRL
In short: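 Well-differentiated primary CF hBE cells (>30 days air/liquid interface) in Ussing chambers, HEPES saline both sides, voltage clamped to zero. Amiloride 30 uM, forskolin 10 uM, four rising compound concentrations, then CFTRinh-172 20 uM added at 20-25 min intervals. Short-circuit current scaled to DMSO (0%) and a positive control potentiator maximum (100%).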

[2] = target: T2, recombinant F508del V470 CFTR in Fischer rat thyroid (FRT) cells (Homo sapiens, UniProt P13569, DEL508-508); test: FRT ion flux assay of F508del CFTR potentiation; assay type: cell-based; settings: FRT cells expressing F508del V470 CFTR, forskolin 20 uM, 27° C. pre-incubation
T2 construct: expressed in transfected cells
T2 sequence (P13569 with tags, fused parts or gaps DEL508-508): as above
In short: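 FRT cells co-expressing F508del V470 CFTR and halide-sensitive YFP, temperature-corrected at 27° C for 16-24 h, then treated 30 min with compound plus 20 uM forskolin. Iodide addition quenches YFP, read after ~21 s; ratio scaled to DMSO (0%) and positive control potentiator (100%).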

Structure (SMILES)	pEC50 [1]	pEC50 [2]
CCC(c1cn(-c2ccc(F)c(F)c2)nn1)n1cc(-c2cnc(OC)c(F)c2)c2c(N)ncnc21 (single isomer, unassigned; enantiomer 1) [Example 157, 7-{1-[1-(3,4-Difluorophenyl)-1H-1,2,3-triazol-4-yl]propyl}-5-(5-fluoro-6-methoxypyridin-3-yl)-7H-pyrrolo[2,3-d]pyrimidin-4-amine, enantiomer 1]	6.62	6.36
CCC(c1cn(-c2ccc(F)cc2F)nn1)n1cc(-c2cncnc2OC)c2c(N)ncnc21 (single isomer, unassigned; enantiomer 1) [Example 159, (+) 7-{1-[1-(2,4-Difluorophenyl)-1H-1,2,3-triazol-4-yl]propyl}-5-(4-methoxypyrimidin-5-yl)-7H-pyrrolo[2,3-d]pyrimidin-4-amine, enantiomer 1]	7.45	7.73
CCC(c1cn(-c2ccc(F)cc2F)nn1)n1cc(-c2cc(F)cnc2OC)c2c(N)ncnc21 (single isomer, unassigned; enantiomer 1) [Example 163, 7-{1-[1-(2,4-Difluorophenyl)-1H-1,2,3-triazol-4-yl]propyl}-5-(5-fluoro-2-methoxypyridin-3-yl)-7H-pyrrolo[2,3-d]pyrimidin-4-amine, enantiomer 1]	7.01	6.53
CCC(c1cn(-c2ccc(F)cc2F)nn1)n1cc(-c2cnc(OC)c(F)c2)c2c(N)ncnc21 (single isomer, unassigned; enantiomer 1) [Example 165, 7-{1-[1-(2,4-Difluorophenyl)-1H-1,2,3-triazol-4-yl]propyl}-5-(5-fluoro-6-methoxypyridin-3-yl)-7H-pyrrolo[2,3-d]pyrimidin-4-amine, enantiomer 1]	6.61	6.14
CCC(c1cn(-c2ccc(F)cc2F)nn1)n1cc(-c2cnc(C(F)F)nc2)c2c(N)ncnc21 (single isomer, unassigned; enantiomer 1) [Example 167, 5-[2-(Difluoromethyl)pyrimidin-5-yl]-7-{1-[1-(2,4-difluorophenyl)-1H-1,2,3-triazol-4-yl]propyl}-7H-pyrrolo[2,3-d]pyrimidin-4-amine, enantiomer 1]	7.30	7.60
CCC(c1cn(-c2cccc(F)c2F)nn1)n1cc(-c2cc(F)cnc2OC)c2c(N)ncnc21 (single isomer, unassigned; enantiomer 1) [Example 169, 7-{1-[1-(2,3-Difluorophenyl)-1H-1,2,3-triazol-4-yl]propyl}-5-(5-fluoro-2-methoxypyridin-3-yl)-7H-pyrrolo[2,3-d]pyrimidin-4-amine, enantiomer 1]	8.31	8.10
CCC(c1cn(-c2cc(F)ccc2F)nn1)n1cc(-c2cc(F)cnc2OC)c2c(N)ncnc21 (single isomer, unassigned; enantiomer 1) [Example 171, 7-{1-[1-(2,5-Difluorophenyl)-1H-1,2,3-triazol-4-yl]propyl}-5-(5-fluoro-2-methoxypyridin-3-yl)-7H-pyrrolo[2,3-d]pyrimidin-4-amine, enantiomer 1]	8.41	7.93
CCC(c1cn(-c2ccccc2F)nn1)n1cc(C2CC2)c2c(N)ncnc21 (single isomer, unassigned; enantiomer 1) [Example 173, (−) 5-Cyclopropyl-7-{1-[1-(2-fluorophenyl)-1H-1,2,3-triazol-4-yl]propyl}-7H-pyrrolo[2,3-d]pyrimidin-4-amine, enantiomer 1]	7.57	7.53
COc1ncncc1-c1cn(C(c2cn(-c3ccccc3F)nn2)C2CC2)c2ncnc(N)c12 (single isomer, unassigned; enantiomer 1) [Example 174, (+) 7-{Cyclopropyl[1-(2-fluorophenyl)-1H-1,2,3-triazol-4-yl]methyl}-5-(4-methoxypyrimidin-5-yl)-7H-pyrrolo[2,3-d]pyrimidin-4-amine, enantiomer 1]	7.50	7.71
CCC(c1cnn(-c2ccccc2F)c1)n1cc(-c2cnc(C(F)(F)F)nc2)c2c(N)ncnc21 (single isomer, unassigned; enantiomer 1) [Example 175, 7-{(1-[1-(2-Fluorophenyl)-1H-pyrazol-4-yl]propyl}-5-[2-(trifluoromethyl)pyrimidin-5-yl]-7H-pyrrolo[2,3-d]pyrimidin-4-amine, enantiomer 1]	8.10	8.00
CCC(c1c[nH]c(-c2ccc(F)cc2F)n1)n1cc(-c2cnc(C(F)(F)F)nc2)c2c(N)ncnc21 (single isomer, unassigned; enantiomer 1) [Example 177, 7-{1-[2-(2,4-Difluorophenyl)-2H-imidazol-4-yl]propyl}-5-[2-(trifluoromethyl)pyrimidin-5-yl]-7H-pyrrolo[2,3-d]pyrimidin-4-amine, enantiomer 1]	7.72	7.67
Cc1c(C(C)n2cc(-c3cnc(C(F)(F)F)nc3)c3c(N)ncnc32)nnn1-c1ccccc1F (single isomer, unassigned; enantiomer 1) [Example 179, 7-{1-[1-(2-Fluorophenyl)-5-methyl-1H-1,2,3-triazol-4-yl]ethyl}-5-[2-(trifluoromethyl)pyrimidin-5-yl]-7H-pyrrolo[2,3-d]pyrimidin-4-amine, enantiomer 1]	7.64	8.00
CC(c1cc(-c2ccccc2F)no1)n1cc(-c2ccc(Cl)cc2)c2c(N)ncnc21 (single isomer, unassigned; enantiomer 1) [Example 181, (+)-5-(4-Chlorophenyl)-7-{1-[3-(2-fluorophenyl)-1,2-oxazol-5-yl]ethyl}-7H-pyrrolo[2,3-d]pyrimidin-4-amine, enantiomer 1]	7.61	6.27
CC(c1cn(-c2ccccc2F)nn1)n1cc(C2CCC2)c2c(N)ncnc21 (single isomer, unassigned; enantiomer 1) [Example 294, 5-Cyclobutyl-7-{1-[1-(2-fluorophenyl)-1H-1,2,3-triazol-4-yl]ethyl}-7H-pyrrolo[2,3-d]pyrimidin-4-amine, enantiomer 1]	6.72	6.78
CCC(c1cn(-c2cccc(F)c2F)nn1)n1cc(-c2cncnc2OC)c2c(N)ncnc21 (single isomer, unassigned; enantiomer 1) [Example 305, (−) 7-{1-[1-(2,3-Difluorophenyl)-1H-1,2,3-triazol-4-yl]propyl}-5-(4-methoxypyrimidin-5-yl)-7H-pyrrolo[2,3-d]pyrimidin-4-amine, enantiomer 1]	6.43	6.26
CCC(c1cn(-c2cc(F)ccc2F)nn1)n1cc(-c2cncnc2OC)c2c(N)ncnc21 (single isomer, unassigned; enantiomer 1) [Example 307, (+) 7-{1-[1-(2,5-Difluorophenyl)-1H-1,2,3-triazol-4-yl]propyl}-5-(4-methoxypyrimidin-5-yl)-7H-pyrrolo[2,3-d]pyrimidin-4-amine, enantiomer 1]	7.26	7.34
CCC(c1cn(-c2ccc(OC)nc2)nn1)n1cc(-c2cnc(C(F)(F)F)nc2)c2c(N)ncnc21 (single isomer, unassigned; enantiomer 1) [Example 309, 7-{1-[1-(6-Methoxypyridin-3-yl)-1H-1,2,3-triazol-4-yl]propyl}-5-[2-(trifluoromethyl)pyrimidin-5-yl]-7H-pyrrolo[2,3-d]pyrimidin-4-amine, enantiomer 1]	7.16	7.16
CCC(c1cn(-c2cc(F)cc(F)c2)nn1)n1cc(-c2cnc(C(F)(F)F)nc2)c2c(N)ncnc21 (single isomer, unassigned; enantiomer 1) [Example 311, 7-{1-[1-(3,5-Difluorophenyl)-1H-1,2,3-triazol-4-yl]propyl}-5-[2-(trifluoromethyl)pyrimidin-5-yl]-7H-pyrrolo[2,3-d]pyrimidin-4-amine, enantiomer 1]	6.95	6.60
CC(c1cn(-c2ccc(F)cc2F)nn1)n1c(C#N)c(-c2ccc(OC3CC3)nc2)c2c(N)ncnc21 (single isomer, unassigned; enantiomer 1) [Example 320, 4-Amino-5-[6-(cyclopropyloxy)pyridin-3-yl]-7-{1-[1-(2,4-difluorophenyl)-1H-1,2,3-triazol-4-yl]ethyl}-7H-pyrrolo[2,3-d]pyrimidine-6-carbonitrile, enantiomer 1]	7.34	6.92
CCC(c1cn(-c2ccc(F)c(F)c2)nn1)n1c(C#N)c(-c2cnc(C(F)(F)F)nc2)c2c(N)ncnc21 (single isomer, unassigned; enantiomer 1) [Example 322, 4-Amino-7-{1-[1-(3,4-difluorophenyl)-1H-1,2,3-triazol-4-yl]propyl}-5-[2-(trifluoromethyl)pyrimidin-5-yl]-7H-pyrrolo[2,3-d]pyrimidine-6-carbonitrile, enantiomer 1]	7.47	7.30
COc1ncccc1-c1cn(C(C)c2cn(-c3ccccc3F)nn2)c2ncnc(N)c12 (single isomer, unassigned; enantiomer 2) [Example 114, (+) 7-{1-[1-(2-Fluorophenyl)-1H-1,2,3-triazol-4-yl]ethyl}-5-(2-methoxypyridin-3-yl)-7H-pyrrolo[2,3-d]pyrimidin-4-amine, enantiomer 2]	7.12	7.44
